Data from ChEMBL document CHEMBL3045592, “Studies of O,O-dimethyl α-(2,4-dichlorophenoxyacetoxy)ethylphosphonate (HW02) as a new herbicide. 1. Synthesis and herbicidal activity of HW02 and analogues as novel inhibitors of pyruvate dehydrogenase complex” (J Agric Food Chem, 2011).

Columns and labels:
Type in all cases: functional
Amaranthus retroflexus [1] = assay: Post-emergence herbicidal activity against Amaranthus retroflexus assessed as growth inhibition at 1500 ai g/ha after 20 days by green house test
Medicago sativa [2] = assay: Post-emergence herbicidal activity against Medicago sativa (alfalfa) assessed as growth inhibition at 1500 ai g/ha after 20 days by green house test
Echinochloa crus-galli [3] = assay: Pre-emergence herbicidal activity against Echinochloa crus-galli (barnyard grass) assessed as growth inhibition at 1500 ai g/ha after 20 days by green house test
Medicago sativa [4] = assay: Pre-emergence herbicidal activity against Medicago sativa (alfalfa) assessed as growth inhibition at 1500 ai g/ha after 20 days by green house test
[5] = tested on: Brassica rapa subsp. oleifera; assay: Pre-emergence herbicidal activity against Brassica rapa subsp. oleifera Si Yue Man assessed as growth inhibition at 1500 ai g/ha after 20 days by green house test
Amaranthus retroflexus [6] = assay: Pre-emergence herbicidal activity against Amaranthus retroflexus assessed as growth inhibition at 1500 ai g/ha after 20 days by green house test
Echinochloa crus-galli [7] = assay: Post-emergence herbicidal activity against Echinochloa crus-galli (barnyard grass) assessed as growth inhibition at 1500 ai g/ha after 20 days by green house test
Digitaria sanguinalis [8] = assay: Pre-emergence herbicidal activity against Digitaria sanguinalis (hairy crabgrass) assessed as growth inhibition at 1500 ai g/ha after 20 days by green house test
Digitaria sanguinalis [9] = assay: Post-emergence herbicidal activity against Digitaria sanguinalis (hairy crabgrass) assessed as growth inhibition at 1500 ai g/ha after 20 days by green house test
[10] = tested on: Brassica rapa subsp. oleifera; assay: Post-emergence herbicidal activity against Brassica rapa subsp. oleifera Si Yue Man assessed as growth inhibition at 1500 ai g/ha after 20 days by green house test

| Structure (SMILES) | growth inhibition (GI) (Amaranthus retroflexus [1]) | growth inhibition (GI) (Medicago sativa [2]) | growth inhibition (GI) (Echinochloa crus-galli [3]) | growth inhibition (GI) (Medicago sativa [4]) | growth inhibition (GI) [5] | growth inhibition (GI) (Amaranthus retroflexus [6]) | growth inhibition (GI) (Echinochloa crus-galli [7]) | growth inhibition (GI) (Digitaria sanguinalis [8]) | growth inhibition (GI) (Digitaria sanguinalis [9]) | growth inhibition (GI) [10] |
| --- | --- | --- | --- | --- | --- | --- | --- | --- | --- | --- |
| COP(=O)(OC)C(OC(=O)COc1ccc(Cl)cc1Cl)C(Cl)(Cl)Cl (stereo not given) | 90% | 50% | 90% | 90% | 90% | 90% | 50% | 90% | 50% | 90% |
| COP(=O)(OC)C(OC(=O)COc1ccc(C)cc1)c1ccccc1 (stereo not given) | 50% | 50% | <=50% | 75% | 75% | 75% | <=50% | <=50% | <=50% | 50% |
| COP(=O)(OC)C(OC(=O)COc1cccc(C(F)(F)F)c1)c1cccc([N+](=O)[O-])c1 (stereo not given) | <=50% | <=50% | <=50% | 50% | 50% | 50% | 50% | <=50% | <=50% | 50% |
| COP(=O)(OC)C(OC(=O)COc1ccccc1)c1ccccc1 (stereo not given) | <=50% | <=50% | <=50% | <=50% | <=50% | <=50% | <=50% | <=50% | <=50% | <=50% |
| COP(=O)(OC)C(OC(=O)COc1ccc([N+](=O)[O-])cc1)c1cccc([N+](=O)[O-])c1 (stereo not given) | <=50% | <=50% | <=50% | <=50% | <=50% | <=50% | <=50% | <=50% | <=50% | <=50% |
| COP(=O)(OC)C(OC(=O)COc1ccc(C(F)(F)F)cc1)c1ccccc1 (stereo not given) | <=50% | <=50% | <=50% | <=50% | <=50% | <=50% | <=50% | <=50% | <=50% | <=50% |
| COP(=O)(OC)C(OC(=O)COc1ccccc1[N+](=O)[O-])c1cccc([N+](=O)[O-])c1 (stereo not given) | <=50% | <=50% | <=50% | <=50% | <=50% | <=50% | <=50% | <=50% | <=50% | <=50% |
| COP(=O)(OC)C(C)OC(=O)COc1ccc(F)cc1 (stereo not given) | 75% | 50% | <=50% | 75% | 75% | 50% | <=50% | 90% | <=50% | 50% |
| COP(=O)(OC)C(OC(=O)COc1ccc(Cl)cc1)c1ccccc1O (stereo not given) | 75% | 75% | <=50% | 90% | <=50% | <=50% | <=50% | 50% | <=50% | 75% |
| COP(=O)(OC)C(OC(=O)COc1ccc(F)cc1Cl)c1cccc([N+](=O)[O-])c1 (stereo not given) | 90% | 50% | 90% | 90% | 90% | 90% | 75% | 90% | 50% | 75% |
| COP(=O)(OC)C(C)OC(=O)COc1ccc(Br)cc1Br (stereo not given) | 90% | 90% | <=50% | 75% | <=50% | <=50% | <=50% | <=50% | <=50% | 90% |
| COP(=O)(OC)C(OC(=O)COc1cc(C)ccc1Cl)c1cccc([N+](=O)[O-])c1 (stereo not given) | <=50% | <=50% | <=50% | <=50% | <=50% | <=50% | <=50% | <=50% | <=50% | <=50% |
| COP(=O)(OC)C(OC(=O)COc1ccc(F)c(Cl)c1)c1cccc([N+](=O)[O-])c1 (stereo not given) | 75% | 50% | 50% | 50% | <=50% | 50% | 50% | <=50% | 75% | 50% |
| COP(=O)(OC)C(OC(=O)COc1ccc(C(F)(F)F)cc1)c1cccc([N+](=O)[O-])c1 (stereo not given) | 50% | <=50% | <=50% | <=50% | <=50% | <=50% | <=50% | <=50% | <=50% | <=50% |
| COP(=O)(OC)C(C)OC(=O)COc1cc(C)ccc1Cl (stereo not given) | <=50% | <=50% | <=50% | <=50% | <=50% | <=50% | <=50% | <=50% | 50% | <=50% |
| COP(=O)(OC)C(OC(=O)COc1ccc(Cl)c(C)c1)c1cccc([N+](=O)[O-])c1 (stereo not given) | 75% | 75% | <=50% | 75% | 50% | 75% | <=50% | 50% | <=50% | <=50% |
| COP(=O)(OC)C(C)OC(=O)COc1ccc(F)c(Cl)c1 (stereo not given) | 75% | 75% | 50% | 75% | <=50% | <=50% | <=50% | 50% | <=50% | 75% |
